The target of data set [1] is T1, Androgen receptor (Rattus norvegicus) (UniProt P15207).
T1 sequence (whole entry): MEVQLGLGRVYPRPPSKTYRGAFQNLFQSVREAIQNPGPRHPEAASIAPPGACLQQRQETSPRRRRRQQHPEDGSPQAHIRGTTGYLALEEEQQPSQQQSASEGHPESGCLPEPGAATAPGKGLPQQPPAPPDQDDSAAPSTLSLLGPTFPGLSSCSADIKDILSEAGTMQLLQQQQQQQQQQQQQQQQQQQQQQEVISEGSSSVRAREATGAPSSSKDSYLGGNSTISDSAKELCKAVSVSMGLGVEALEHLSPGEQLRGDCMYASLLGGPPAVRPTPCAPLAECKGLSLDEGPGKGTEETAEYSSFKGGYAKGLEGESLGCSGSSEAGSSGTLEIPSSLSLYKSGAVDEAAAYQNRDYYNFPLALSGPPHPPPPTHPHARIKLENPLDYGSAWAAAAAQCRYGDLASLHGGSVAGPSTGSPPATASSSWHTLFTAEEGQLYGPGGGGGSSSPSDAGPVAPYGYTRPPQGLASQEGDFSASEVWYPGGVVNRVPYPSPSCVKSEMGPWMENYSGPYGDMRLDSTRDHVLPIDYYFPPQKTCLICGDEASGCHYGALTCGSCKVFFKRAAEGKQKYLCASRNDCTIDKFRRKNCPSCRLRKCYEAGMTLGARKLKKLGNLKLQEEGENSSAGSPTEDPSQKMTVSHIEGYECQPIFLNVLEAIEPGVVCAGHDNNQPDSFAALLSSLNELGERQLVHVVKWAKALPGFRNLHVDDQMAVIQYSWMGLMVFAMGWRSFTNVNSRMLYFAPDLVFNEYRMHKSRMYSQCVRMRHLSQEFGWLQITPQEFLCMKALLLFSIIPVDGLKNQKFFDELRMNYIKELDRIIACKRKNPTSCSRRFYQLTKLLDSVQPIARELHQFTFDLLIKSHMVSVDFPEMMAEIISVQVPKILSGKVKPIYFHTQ
Kind of data set: Inhibition of GST-tagged rat androgen receptor LBD domain expressed in insect cells at 10 uM by Gal4-based fluorescence polarization assay. A general note: Fluorescence polarisation rises when a labelled molecule tumbles more slowly, as on binding a larger partner.

In data set [2] the test system is T2, Mineralocorticoid receptor (Homo sapiens), P08235 [C808S].
T2 sequence (whole entry): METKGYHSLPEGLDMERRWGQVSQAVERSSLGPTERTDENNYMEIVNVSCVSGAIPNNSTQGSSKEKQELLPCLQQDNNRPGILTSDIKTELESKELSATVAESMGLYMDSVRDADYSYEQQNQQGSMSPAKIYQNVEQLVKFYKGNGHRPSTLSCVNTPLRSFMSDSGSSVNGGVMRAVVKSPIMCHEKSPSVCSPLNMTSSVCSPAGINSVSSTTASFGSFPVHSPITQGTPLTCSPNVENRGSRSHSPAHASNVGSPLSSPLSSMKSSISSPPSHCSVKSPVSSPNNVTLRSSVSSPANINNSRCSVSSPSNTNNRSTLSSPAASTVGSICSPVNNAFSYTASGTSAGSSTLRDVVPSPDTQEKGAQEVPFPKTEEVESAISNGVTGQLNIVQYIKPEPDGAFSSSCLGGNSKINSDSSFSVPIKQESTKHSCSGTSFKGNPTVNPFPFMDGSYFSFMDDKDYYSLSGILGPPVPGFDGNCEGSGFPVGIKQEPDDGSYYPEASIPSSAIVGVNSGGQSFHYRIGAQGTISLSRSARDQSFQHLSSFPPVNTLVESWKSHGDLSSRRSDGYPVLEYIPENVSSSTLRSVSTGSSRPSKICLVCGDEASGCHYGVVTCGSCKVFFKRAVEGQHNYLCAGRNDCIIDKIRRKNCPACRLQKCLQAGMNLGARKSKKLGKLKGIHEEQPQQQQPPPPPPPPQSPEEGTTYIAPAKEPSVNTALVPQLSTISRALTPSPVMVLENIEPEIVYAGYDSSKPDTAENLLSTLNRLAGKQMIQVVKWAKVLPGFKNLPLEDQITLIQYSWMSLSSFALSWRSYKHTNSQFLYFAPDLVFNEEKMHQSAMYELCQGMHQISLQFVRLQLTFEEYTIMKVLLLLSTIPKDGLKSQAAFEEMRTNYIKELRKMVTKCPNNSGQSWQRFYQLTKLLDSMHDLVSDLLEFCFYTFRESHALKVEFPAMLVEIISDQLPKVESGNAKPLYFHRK
The data set can be described thus: (§1) Agonist activity against 6xHis-MBP-fused human MR LBD domain (732 to 984 amino acid residues) C808S mutant expressed in Escherichia coli BL21(DE3) assessed as receptor activation after 16 hrs by luciferase assay.

The target of data set [3] is Mineralocorticoid receptor (Homo sapiens, UniProt P08235, C808S). The description is as §1.
Data set [4] concerns the target T3, Estrogen receptor (Homo sapiens) (UniProt P03372).
T3 sequence (whole entry): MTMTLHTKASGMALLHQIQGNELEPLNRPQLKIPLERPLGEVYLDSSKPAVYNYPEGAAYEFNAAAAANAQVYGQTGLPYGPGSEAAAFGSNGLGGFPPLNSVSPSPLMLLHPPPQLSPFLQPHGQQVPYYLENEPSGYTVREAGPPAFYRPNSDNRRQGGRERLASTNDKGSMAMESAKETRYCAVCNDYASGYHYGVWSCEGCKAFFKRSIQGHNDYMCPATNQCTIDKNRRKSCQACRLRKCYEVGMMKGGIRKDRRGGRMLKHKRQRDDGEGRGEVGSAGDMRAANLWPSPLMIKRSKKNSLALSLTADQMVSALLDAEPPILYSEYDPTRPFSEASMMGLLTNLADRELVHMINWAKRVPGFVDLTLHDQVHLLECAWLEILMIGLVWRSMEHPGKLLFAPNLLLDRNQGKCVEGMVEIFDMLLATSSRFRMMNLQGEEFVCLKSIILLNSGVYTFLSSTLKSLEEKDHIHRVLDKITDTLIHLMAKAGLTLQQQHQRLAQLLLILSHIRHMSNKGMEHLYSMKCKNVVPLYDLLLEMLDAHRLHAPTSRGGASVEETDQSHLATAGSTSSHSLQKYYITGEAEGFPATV
Kind of data set: Inhibition of estrogen receptor (unknown origin) at 10 uM by Gal4-based luciferase assay.

Data set [5] is described as follows: Half life of compound in rat liver microsomes. Type of data set: ADME. For orientation: Liver microsomes are vesicles of endoplasmic reticulum, rich in cytochrome P450 enzymes.
A further data set addresses Cytochrome P450 3A4 (Homo sapiens, UniProt P08684).
For the next data set, the target named is Cytochrome P450 2D6 (Homo sapiens, UniProt P10635). Kind of data set: Inhibition of CYP2D6 (unknown origin). It counts as ADME.
Cytochrome P450 2D6, sequence (P10635 whole entry): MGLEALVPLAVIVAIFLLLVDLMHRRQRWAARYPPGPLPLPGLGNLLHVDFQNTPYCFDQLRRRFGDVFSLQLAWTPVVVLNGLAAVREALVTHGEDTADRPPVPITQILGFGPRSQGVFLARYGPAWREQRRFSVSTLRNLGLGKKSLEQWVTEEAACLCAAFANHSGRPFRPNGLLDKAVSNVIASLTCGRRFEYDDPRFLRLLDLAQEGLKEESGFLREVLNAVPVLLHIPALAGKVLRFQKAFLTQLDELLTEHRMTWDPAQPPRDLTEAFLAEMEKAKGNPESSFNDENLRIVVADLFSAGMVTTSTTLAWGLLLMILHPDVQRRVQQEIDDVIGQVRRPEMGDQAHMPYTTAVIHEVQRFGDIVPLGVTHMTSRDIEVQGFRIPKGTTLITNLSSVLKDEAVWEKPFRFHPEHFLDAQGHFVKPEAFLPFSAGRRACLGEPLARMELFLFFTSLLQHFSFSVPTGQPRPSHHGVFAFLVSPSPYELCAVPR
The next data set has as its target Cytochrome P450 2C9 (Homo sapiens, UniProt P11712). Kind of data set: Inhibition of CYP2C9 (unknown origin). It counts as ADME.

pEC50, pIC50: −log10 of the molar value. Bounds are passed on as bounds.

Cytochrome P450 2C9, sequence (P11712 whole entry): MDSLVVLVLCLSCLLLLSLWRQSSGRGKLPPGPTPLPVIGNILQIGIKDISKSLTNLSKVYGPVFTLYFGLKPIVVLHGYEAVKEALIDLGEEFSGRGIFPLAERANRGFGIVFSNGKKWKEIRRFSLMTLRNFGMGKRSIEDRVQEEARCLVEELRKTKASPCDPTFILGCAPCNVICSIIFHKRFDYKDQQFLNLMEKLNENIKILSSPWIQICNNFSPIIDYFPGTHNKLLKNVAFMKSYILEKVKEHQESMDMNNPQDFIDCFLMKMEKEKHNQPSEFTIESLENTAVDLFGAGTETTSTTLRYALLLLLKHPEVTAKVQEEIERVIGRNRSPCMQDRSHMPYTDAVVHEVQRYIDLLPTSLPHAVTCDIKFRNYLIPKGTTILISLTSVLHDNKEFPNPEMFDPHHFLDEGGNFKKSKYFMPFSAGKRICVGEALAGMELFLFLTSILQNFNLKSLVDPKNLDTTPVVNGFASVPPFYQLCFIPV
Cytochrome P450 3A4, sequence (P08684 whole entry): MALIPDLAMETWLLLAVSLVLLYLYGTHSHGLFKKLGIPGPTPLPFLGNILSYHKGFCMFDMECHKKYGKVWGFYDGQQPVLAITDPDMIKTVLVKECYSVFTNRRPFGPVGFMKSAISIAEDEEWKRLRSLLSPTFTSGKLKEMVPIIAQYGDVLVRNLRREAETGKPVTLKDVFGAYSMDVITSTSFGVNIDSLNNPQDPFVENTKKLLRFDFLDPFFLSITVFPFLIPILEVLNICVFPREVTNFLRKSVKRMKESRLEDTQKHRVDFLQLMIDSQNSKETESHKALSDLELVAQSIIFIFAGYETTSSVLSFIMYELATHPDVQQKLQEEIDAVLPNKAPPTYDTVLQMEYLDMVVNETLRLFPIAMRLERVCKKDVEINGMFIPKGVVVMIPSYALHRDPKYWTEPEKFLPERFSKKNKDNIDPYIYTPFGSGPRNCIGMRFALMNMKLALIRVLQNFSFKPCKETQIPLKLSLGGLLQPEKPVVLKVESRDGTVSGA
Description for Cytochrome P450 3A4: Inhibition of CYP3A4 (unknown origin)

One may read the inhibition as the share of the control response that was lost under treatment. One may read the pEC50 as the EC50 on a negative log10 scale, so that one unit is a factor of ten. `O=C1COc2ccc(/C=C3\c4ccccc4COc4cc(F)ccc43)cc2N1` yielded an inhibition in data set [1] of 77%. In addition, the Activity in data set [2] was 31%. In addition, in data set [3], the pEC50 is 8.40.

One may read the half-life as the time in which the quantity being followed falls by half. Higher therefore signals slow loss. Broadly, the pIC50 is the IC50 on a negative log10 scale, so that one unit is a factor of ten. A higher pIC50 goes with a small IC50. With `CN1CCC2(CC1)C(=O)Nc1cc(/C=C3\c4ccccc4COc4cc(F)ccc43)ccc12`, the inhibition in data set [4] and in data set [1] was less than 40% in each case. In data set [5], this molecule came in with a half-life of 31 min. Besides, the negative logarithm of the IC50 (pIC50) on Cytochrome P450 3A4 was 5.15; against Cytochrome P450 2D6 it was 5.12; against Cytochrome P450 2C9, 5.55.

These data come from ChEMBL document CHEMBL3774336, “Identification of spirooxindole and dibenzoxazepine motifs as potent mineralocorticoid receptor antagonists” (Bioorg Med Chem, 2016).
